Test results reported in patent US20140243302A1, “BRIDGED BICYCLIC COMPOUNDS FOR THE TREATMENT OF BACTERIAL INFECTIONS” (priority 2011, published 2014).
Values after ≈ are worked out from the molar mass of the structure shown.

Tested on: Staphylococcus aureus Smith
Experiment: MIC assay, modified agar dilution (CLSI), S. aureus Smith
Format: cell-based
Details: Staphylococcus aureus, agar dilution, 35° C., 16-20 hr; lowest concentration that completely inhibited growth; read-out: S_aureus_Smith_WT_MIC
Summary of the method: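 Strains were spotted at about 1×10^4 CFU onto compound-containing Mueller Hinton agar (two-fold series, 128-0.001 μg/mL), horse blood 5% added for pneumococcus and enterococcus. MIC read after 16-20 hr at 35 °C, following a modified CLSI agar dilution method.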

SMILES	MIC [µg/mL]
COc1ccc2ncc(F)c(CCC34CCC(NCc5nc6c(c(C)c5F)OCC(=O)N6)(CC3)CO4)c2n1.Cl [Example 197, 1-(2-(3-Fluoro-6-methoxy-1,5-naphthyridin-4-yl)ethyl)-N-((7-fluoro-8-methyl-3-oxo-3,4-dihydro-2H-pyrido[3,2-b][1,4]oxazin-6-yl)methyl)-2-oxabicyclo[2.2.2]octan-4-aminium chloride]	0.5
CCc1c(CNC23CCC(CCc4c(F)cnc5ccc(OC)nc45)(CC2)OC3)nc2c(c1C)OCC(=O)N2.Cl [Example 198, N-((7-Ethyl-8-methyl-3-oxo-3,4-dihydro-2H-pyrido[3,2-b][1,4]oxazin-6-yl)methyl)-1-(2-(3-fluoro-6-methoxy-1,5-naphthyridin-4-yl)ethyl)-2-oxabicyclo[2.2.2]octan-4-aminium chloride]	2
C=Cc1c(CNC23CCC(CCc4c(F)cnc5ccc(OC)nc45)(CC2)OC3)nc2c(c1C)OCC(=O)N2.Cl [Example 199, 1-(2-(3-Fluoro-6-methoxy-1,5-naphthyridin-4-yl)ethyl)-N-((8-methyl-3-oxo-7-vinyl-3,4-dihydro-2H-pyrido[3,2-b][1,4]oxazin-6-yl)methyl)-2-oxabicyclo[2.2.2]octan-4-aminium chloride]	0.25
N#Cc1ccc2c(c1)N(CCC13CCC(NCc4ccc5c(n4)NC(=O)CO5)(CC1)CO3)C(=O)CO2 [Example 202, 1-(2-(6-Cyano-3-oxo-2H-benzo[b][1,4]oxazin-4(3H)-yl)ethyl)-N-((3-oxo-3,4-dihydro-2H-pyrido[3,2-b][1,4]oxazin-6-yl)methyl)-2-oxabicyclo[2.2.2]octan-4-aminium chloride]	0.25
O=C1COc2ccc(CNC34CCC(CCN5C(=O)COc6ccc(Br)cc65)(CC3)OC4)nc2N1 [Example 203, 1-(2-(6-Bromo-3-oxo-2H-benzo[b][1,4]oxazin-4(3H)-yl)ethyl)-N-((3-oxo-3,4-dihydro-2H-pyrido[3,2-b][1,4]oxazin-6-yl)methyl)-2-oxabicyclo[2.2.2]octan-4-aminium chloride]	0.25
COc1ccc2ncc(F)c(C[C@H](O)C34CCC(NCc5ccc6c(c5)NC(=O)CS6)(CC3)CO4)c2n1.Cl [Example 204, (S)-1-(2-(3-Fluoro-6-methoxy-1,5-naphthyridin-4-yl)-1-hydroxyethyl)-N-((3-oxo-3,4-dihydro-2H-benzo[b][1,4]thiazin-6-yl)methyl)-2-oxabicyclo[2.2.2]octan-4-aminium chloride]	0.06
COc1ccc2ncc(F)c(C[C@H](O)C34CCC(NCc5ccc6c(c5)NC(=O)CS6(=O)=O)(CC3)CO4)c2n1 [Example 205, (S)—N-((1,1-Dioxido-3-oxo-3,4-dihydro-2H-benzo[b][1,4]thiazin-6-yl)methyl)-1-(2-(3-fluoro-6-methoxy-1,5-naphthyridin-4-yl)-1-hydroxyethyl)-2-oxabicyclo[2.2.2]octan-4-aminium chloride]	2
COc1ccc2ncc(F)c(C[C@H](O)C34CCC(NCc5ccc6c(n5)NCCO6)(CC3)CO4)c2n1 [Example 206, (S)-6-(((1-(2-(3-Fluoro-6-methoxy-1,5-naphthyridin-4-yl)-1-hydroxyethyl)-2-oxabicyclo[2.2.2]octan-4-yl)ammonio)methyl)-3,4-dihydro-2H-pyrido[3,2-b][1,4]oxazin-4-ium chloride]	0.06
COc1ccc2ncc(F)c(CCC34CCC(NCc5ccc6c(n5)OCCN6)(CC3)CO4)c2n1 [Example 207, 6-(((1-(2-(3-Fluoro-6-methoxy-1,5-naphthyridin-4-yl)ethyl)-2-oxabicyclo[2.2.2]octan-4-yl)ammonio)methyl)-2,3-dihydro-1H-pyrido[2,3-b][1,4]oxazin-1-ium chloride]	0.5
COc1ccc2ncc(F)c(C(O)CC34CCC(NCc5ccc6c(n5)NC(=O)CO6)(CC3)CS4)c2n1 (centres unmarked) [Example 208, 6-(((1-(2-(3-Fluoro-6-methoxy-1,5-naphthyridin-4-yl)-2-hydroxyethyl)-2-thiabicyclo[2.2.2]octan-4-yl)amino)methyl)-2H-pyrido[3,2-b][1,4]oxazin-3(4H)-one]	0.06 (≈ 0.114 µM)
CC(O)(CC12CCC(NCc3ccc4c(n3)NC(=O)CO4)(CC1)CO2)c1c(F)cnc2ccc(OCCO)nc12 (centres unmarked) [Example 209, 1-(2-(3-Fluoro-6-(2-hydroxyethoxy)-1,5-naphthyridin-4-yl)-2-hydroxypropyl)-N-((3-oxo-3,4-dihydro-2H-pyrido[3,2-b][1,4]oxazin-6-yl)methyl)-2-oxabicyclo[2.2.2]octan-4-aminium chloride]	8
O=C1COc2ccc(CNC34CCC(CC(O)c5c(F)cnc6ccc(OCCCO)nc56)(CC3)OC4)nc2N1 (centres unmarked) [Example 210, 1-(2-(3-Fluoro-6-(3-hydroxypropoxy)-1,5-naphthyridin-4-yl)-2-hydroxyethyl)-N-((3-oxo-3,4-dihydro-2H-pyrido[3,2-b][1,4]oxazin-6-yl)methyl)-2-oxabicyclo[2.2.2]octan-4-aminium chloride]	0.25
Cl.O=C1COc2ccc(CNC34CCC(CCn5c(=O)ccc6ncc(OCC7CC7C(=O)O)cc65)(CC3)OC4)nc2N1 (centres unmarked) [Example 283, 2-((6-Oxo-5-(2-(4-((3-oxo-3,4-dihydro-2H-pyrido[3,2-b][1,4]oxazin-6-yl)methylamino)-2-oxabicyclo[2.2.2]octan-1-yl)ethyl)-5,6-dihydro-1,5-naphthyridin-3-yloxy)methyl)cyclopropanecarboxylic Acid Hydrochloride]	16
COc1ccc2ncc(F)c(CCC34CCC(NCc5cc6c(F)ccc(F)c6nc5OC)(CC3)CO4)c2n1 [Example 288, N-((5,8-Difluoro-2-methoxyquinolin-3-yl)methyl)-1-(2-(3-fluoro-6-methoxy-1,5-naphthyridin-4-yl)ethyl)-2-oxabicyclo[2.2.2]octan-4-amine]	0.125 (≈ 0.232 µM)
O=C1COc2ccc(CNC34CCC(CCc5c(F)cnc6ccc(N7CCOC7=O)nc56)(CC3)OC4)nc2N1 [Example 292, 6-((1-(2-(3-Fluoro-6-(2-oxooxazolidin-3-yl)-1,5-naphthyridin-4-yl)ethyl)-2-oxabicyclo[2.2.2]octan-4-ylamino)methyl)-2H-pyrido[3,2-b][1,4]oxazin-3(4H)-one]	0.125 (≈ 0.228 µM)
O=C1COc2ccc(CNC34CCC(CCc5c(F)cnc6ccc(N7CCC(O)CC7)nc56)(CC3)OC4)nc2N1 [Example 293, 6-((1-(2-(3-Fluoro-6-(4-hydroxypiperidin-1-yl)-1,5-naphthyridin-4-yl)ethyl)-2-oxabicyclo[2.2.2]octan-4-ylamino)methyl)-2H-pyrido[3,2-b][1,4]oxazin-3(4H)-one]	0.5 (≈ 0.889 µM)
O=C1COc2ccc(CNC34CCC(CCc5c(F)cnc6ccc(N7CC[C@H](O)C7)nc56)(CC3)OC4)nc2N1 [Example 294, (S)-6-((1-(2-(3-Fluoro-6-(3-hydroxypyrrolidin-1-yl)-1,5-naphthyridin-4-yl)ethyl)-2-oxabicyclo[2.2.2]octan-4-ylamino)methyl)-2H-pyrido[3,2-b][1,4]oxazin-3(4H)-one]	0.125 (≈ 0.228 µM)
